From ChEMBL document CHEMBL5126668, “The Invention of WM382, a Highly Potent PMIX/X Dual Inhibitor toward the Treatment of Malaria” (ACS Med Chem Lett, 2022) come the findings set out here.

Series [1] has as its system Plasmodium falciparum. In words: Antimalarial activity against asexual blood stage Plasmodium falciparum infected in RBC measured after 72 hrs by LDH release assay. Format: functional, organism-based. The note with it: Erythrocyte. (LDH leaks from cells whose membrane has failed.)
Series [2] has as its target Plasmepsin X (Plasmodium falciparum (isolate 3D7), UniProt Q8IAS0). In words: Inhibition of Plasmodium falciparum 3D7 HA-glms-tagged PMX using DABCYL-HSFIQEGKEE-EDANS as substrate measured after 2 hrs by FRET assay.
Series [3] has as its target T1, Plasmepsin IX (Plasmodium falciparum, UniProt Q8ILG2).
T1 sequence (Q8ILG2 whole entry): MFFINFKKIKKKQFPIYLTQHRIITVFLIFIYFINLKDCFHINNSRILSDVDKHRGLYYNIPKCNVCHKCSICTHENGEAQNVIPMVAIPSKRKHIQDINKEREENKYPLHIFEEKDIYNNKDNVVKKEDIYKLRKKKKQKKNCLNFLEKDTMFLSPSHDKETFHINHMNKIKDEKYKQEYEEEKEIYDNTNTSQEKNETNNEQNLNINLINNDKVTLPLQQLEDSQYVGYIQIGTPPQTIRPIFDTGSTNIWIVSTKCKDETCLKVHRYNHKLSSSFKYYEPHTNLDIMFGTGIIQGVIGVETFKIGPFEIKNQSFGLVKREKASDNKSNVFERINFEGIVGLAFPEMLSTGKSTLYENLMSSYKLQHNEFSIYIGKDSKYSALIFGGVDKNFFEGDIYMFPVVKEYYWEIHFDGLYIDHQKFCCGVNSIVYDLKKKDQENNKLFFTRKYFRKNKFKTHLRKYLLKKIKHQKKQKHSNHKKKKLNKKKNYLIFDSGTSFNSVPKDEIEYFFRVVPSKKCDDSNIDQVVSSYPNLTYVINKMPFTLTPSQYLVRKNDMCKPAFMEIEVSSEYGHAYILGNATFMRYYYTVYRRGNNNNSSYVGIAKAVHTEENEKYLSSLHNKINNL
The series is described as follows: Inhibition of Plasmodium falciparum 3D7 HA-glms-tagged PMIX using DABCYL-HSFIQEGKEE-EDANS as substrate measured after 2 hrs by FRET assay.

A short description of series [4]: Kinetic solubility of the compound. Format: physicochemical. The note with it: read-out: Kinetic_solubility.
Series [5] in a line: Mean residence time in rat. Format: ADME. To be noted: in vivo.
The nature of series [6]: Apparent permeability across apical to basolateral side in MDCK cells. The series is classed as ADME, cell-based, Canis lupus familiaris. The note with it: dog.
Series [7] in a line: Volume of distribution in mouse. Format: ADME, organism-based. The note with it: in vivo.
A short description of series [8]: Protein binding in mouse plasma. The series is classed as ADME, cell-free. The note with it: read-out: PPB (converted).
Series [9] is described as follows: Unbound plasma clearance in mouse. The series is classed as ADME, organism-based. The note with it: in vivo.
A short description of series [10]: Plasma clearance in mouse. Format: ADME, organism-based.
The nature of series [11]: Oral bioavailability in mouse. Format: ADME, organism-based. To be noted: in vivo.
The nature of series [12]: Mean residence time in mouse. Format: ADME, organism-based. The note with it: in vivo.
Series [13] can be described thus: Oral bioavailability in rat. Format: ADME, organism-based. The note with it: in vivo.
A short description of series [14]: Volume of distribution in rat. Format: ADME. To be noted: in vivo.
Series [15] in a line: Unbound volume of distribution in mouse. Format: ADME, organism-based. The note with it: in vivo.
Series [16] can be described thus: Protein binding in rat plasma. The series is classed as ADME, cell-free. The note with it: read-out: PPB (converted).
Series [17] can be described thus: Unbound volume of distribution in rat. Format: ADME. The note with it: in vivo.
The nature of series [18]: Plasma clearance in rat. The series is classed as ADME.
Series [19] can be described thus: Lipophilicity, log D of compound at pH 7.4. To be noted: buffer. Format: physicochemical.
The nature of series [20]: Unbound clearance in rat. To be noted: in vivo. Format: ADME.

Values after ≈ are worked out from the molar mass of the structure shown.

Sequence of Plasmepsin X (Q8IAS0 whole entry): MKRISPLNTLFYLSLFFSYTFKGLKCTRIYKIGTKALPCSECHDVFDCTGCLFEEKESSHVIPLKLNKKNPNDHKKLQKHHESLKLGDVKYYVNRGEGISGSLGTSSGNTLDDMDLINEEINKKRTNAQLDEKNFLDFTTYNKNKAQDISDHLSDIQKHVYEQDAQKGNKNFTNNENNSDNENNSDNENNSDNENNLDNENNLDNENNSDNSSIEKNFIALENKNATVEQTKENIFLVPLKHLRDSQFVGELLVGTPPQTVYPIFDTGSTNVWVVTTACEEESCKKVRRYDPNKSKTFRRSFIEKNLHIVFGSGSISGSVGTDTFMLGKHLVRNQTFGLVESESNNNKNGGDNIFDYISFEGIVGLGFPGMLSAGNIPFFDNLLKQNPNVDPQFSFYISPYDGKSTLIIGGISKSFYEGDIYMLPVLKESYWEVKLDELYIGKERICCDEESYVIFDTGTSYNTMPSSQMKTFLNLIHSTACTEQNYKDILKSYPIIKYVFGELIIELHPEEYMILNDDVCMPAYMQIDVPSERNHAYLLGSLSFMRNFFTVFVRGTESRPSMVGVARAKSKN

With `CCC1(CC)CC(=O)N(Cc2cc(C(=O)N[C@H]3CCOc4ccccc43)cnn2)C(=N)N1`, the EC50 in series [1] was 169 nM.
Still for that read-out and setting: with `CC(NC(=O)c1cccc(CN2C(=N)N[C@](C)(C(C)C)CC2=O)c1)c1ccccn1` (mixture of isomers) the figure was greater than 1000 nM; with `CCC1(CC)CC(=O)N(Cc2ccnc(C(=O)N[C@H]3CCOc4ccccc43)c2)C(=N)N1`, 17 nM.
For the compound `CCC1(CC)CC(=O)N([C@@H]2CCOc3ccc(C(=O)N[C@H]4CCS(=O)(=O)c5ccccc54)cc32)C(=N)N1`, the IC50 was 0.3 nM in series [2] and 24 nM in [3]. In addition, the EC50 in [1] was found to be 18 nM.
For `CCC1(CC)CC(=O)N(Cc2cccc(C(=O)N[C@H]3CCOc4ccccc43)n2)C(=N)N1`, the EC50 in series [1] turned out to be 110 nM.
As for `CCC1(CC)CC(=O)N([C@@H]2CCOc3ccc(C(=O)N[C@H]4CCCOc5ccccc54)cc32)C(=N)N1`, the results for the IC50 in series [2] and in [3] were 0.6 nM and 68 nM, respectively. In addition, a half-maximal response in [1] (EC50) required 2.8 nM.
Compound `CCC1(CC)CC(=O)N(Cc2cccc(C(=O)N[C@H]3CCOc4ccccc43)c2)C(=N)N1` gave an EC50 in [1] of 0.4 nM.
The same measure, in the same setting: with `CC(C)[C@]1(C)CC(=O)N(Cc2cccc(C(=O)N[C@@H](C)c3ccccc3)c2)C(=N)N1` the figure was 308 nM.
On the same count and under the same terms, with `CCC[C@H](c1cccc(C(=O)N[C@@H](C)c2ccccc2)c1)N1C(=N)NC(CC)(CC)CC1=O` the figure was 0.8 nM.
As to `CCNC(=O)c1cccc(CN2C(=N)N[C@](C)(C(C)C)CC2=O)c1`, the EC50 in [1] was greater than 1000 nM.
The same measure, in the same setting: with `CC(C)[C@]1(C)CC(=O)N(Cc2cccc(C(=O)NC3CCCc4ccccc43)c2)C(=N)N1` (mixture of isomers) the figure was 68 nM; with `CCC1(CC)CC(=O)N(Cc2cncc(C(=O)N[C@H]3CCOc4ccccc43)c2)C(=N)N1`, 10 nM; with `CCC1(CC)CC(=O)N([C@@H](c2ccccc2)c2cccc(C(=O)N[C@@H](C)c3ccccc3)c2)C(=N)N1`, 830 nM.
Consider `CCC1(CC)CC(=O)N([C@@H]2CCOc3ccc(C(=O)NC4CCOc5ccccc54)cc32)C(=N)N1` (single isomer, unassigned), for which the solubility kinetic in series [4] turned out to be 0.2 µM (≈ 0.0953 µg/mL). Further, the MRT in series [5] is 2.7 h; in series [12], 1.3 h. The half-inhibitory concentration (IC50) came to 0.07 nM in [2] and 2.2 nM in series [3]. Moreover, the Papp A→B in series [6] amounted to 8.8 ×10⁻⁶ cm/s. In addition, the Vd in [7] turned out to be 5.4 L/kg; in [14] it was 12 L/kg. The fraction unbound in [8] is 0.053; in [16] it was 0.152. This compound also had an EC50 in series [1] of 2.5 nM. Also, the CL free came out at 1278 mL/min/kg in series [9] and 518 mL/min/kg in series [20]. For the same compound, the clearance in series [10] is 68 mL/min/kg; in series [18] it was 79 mL/min/kg. Moreover, the bioavailability in [11] was found to be 4%; in [13], 27%. In addition, the Vdu was found to be 102 L/kg in [15] and 80 L/kg in [17]. This compound also returned a logD in series [19] of 2.1.
The compound `CC(C)[C@]1(C)CC(=O)N(Cc2cccc(C(=O)NCCc3ccccc3)c2)C(=N)N1` had an EC50 in [1] greater than 1000 nM.
Regarding `CCC[C@H](c1cccc(C(=O)N[C@H]2CCOc3ccccc32)c1)N1C(=N)NC(CC)(CC)CC1=O`, in series [4], the solubility kinetic amounted to 0.2 µM (≈ 0.0953 µg/mL). For the same compound, the MRT in series [5] and in series [12] was 1.1 h throughout. Moreover, the IC50 amounted to 0.06 nM in [2] and 4.5 nM in series [3]. Moreover, the Papp A→B in series [6] was 16.3 ×10⁻⁶ cm/s. Further, the distribution volume (Vd) in series [7] amounted to 2.3 L/kg; in [14] it was 6.7 L/kg. The values for the fraction unbound in [8] and in [16] were 0.011 and 0.02, respectively. In series [1], this compound yielded an EC50 of 0.4 nM. For the same compound, the CL free was 3148 mL/min/kg in [9] and 5648 mL/min/kg in series [20]. Also, the clearance in series [10] came to 36 mL/min/kg; in series [18] it was 103 mL/min/kg. Moreover, the values for the bioavailability in series [11] and in series [13] were 14% and 6%, respectively. The Vdu in series [15] came out at 204 L/kg; in series [17], 340 L/kg. For the same compound, in series [19], the logD was determined as 2.9.
`CC(C)[C@]1(C)CC(=O)N(Cc2cc(F)cc(C(=O)N[C@@H](C)c3ccccc3)c2)C(=N)N1` gave an EC50 in [1] of 340 nM.
In series [1], `CCC1(CC)CC(=O)N([C@H](CCO)c2cccc(C(=O)N[C@@H](C)c3ccccc3)c2)C(=N)N1` registered an EC50 of 210 nM. This EC50 lies about 1.6-fold lower than the previous one.
Regarding `CCC1(CC)CC(=O)N([C@H](CCOC)c2cccc(C(=O)N[C@@H](C)c3ccccc3)c2)C(=N)N1`, in [1], the EC50 is 40 nM.
`CC(C)C[C@H](c1ccc(C(F)(F)F)c(C(=O)N2Cc3nccnc3C2)c1)N1C(=N)N[C@](CC2CC2)(c2ccccc2)CC1=O` showed an IC50 in [2] of 5.7 nM. In [1], the EC50 was 10 nM.
`CCC1(CC)CC(=O)N(C(c2cccc(C(=O)N[C@@H](C)c3ccccc3)c2)C2CC2)C(=N)N1` (mixture of isomers) yielded a 50% effective concentration (EC50) in series [1] of 160 nM.
Still for that read-out and setting: with `CCC1(CC)CC(=O)N(Cc2cc(F)cc(C(=O)N[C@@H](C)c3ccccc3)c2)C(=N)N1` the figure was 93 nM; with `CCC1(CC)CC(=O)N(Cc2ccnc(C(=O)N[C@H]3CCOc4ccccc43)n2)C(=N)N1`, 65 nM.

The EC50 is the concentration needed to bring the measured effect to its halfway point. A low value points to an effect from little substance. In general, IC50 refers to the concentration at which inhibition is half-maximal. Read a low IC50 as greater potency. Usually MRT stands for the average time that molecules of a dose stay in the body. The term Papp A→B denotes how fast a substance crosses the layer from the apical side. The term Vd denotes the apparent volume that relates the amount in the body to the concentration in plasma or blood. Read a high Vd as wide distribution into tissue. The term clearance denotes the rate of elimination divided by the concentration. Higher therefore signals efficient removal. As usually defined, the bioavailability is dose-corrected exposure relative to a reference, in per cent. A lower bioavailability goes with poor availability. For orientation: logD means lipophilicity at a set pH, counting ionised and neutral species. Low readings indicate lower lipophilicity, high ones higher lipophilicity.
